The record followed here is ChEMBL document CHEMBL1144346, “Synthesis, DNA affinity, and antiprotozoal activity of fused ring dicationic compounds and their prodrugs” (J Med Chem, 2005).

Data set [1] relates to Trypanosoma brucei rhodesiense. Description: In vitro antiprotozoal activity against Trypanosoma brucei rhodesiense strain STIB900. It is filed as functional, organism-based.
In a further data set the test system is Plasmodium falciparum. Description: In vitro antiprotozoal activity for Plasmodium falciparum K1. It is filed as functional, organism-based.
The next data set concerns L6. Description: In vitro cytotoxicity evaluated using cultured L6 rat myoblast cells. It is filed as functional. To be noted: read-out: TD50 (the source's name).
In data set [2] the test system is Mus musculus. The experiment in a line: In vivo antitrypanosomal activity (100 mg/kg for 4 days, p.o.) measured as cured mice infected with Trypanosoma brucei rhodesiense strain STIB900; 0 cured out of 4.
The test system of a further data set is Nucleic Acid. The experiment in a line: poly(d(A-T)2) binding affinity is measured as change in DNA melting temperature. It is filed as nucleic-acid assay.
The test system of data set [3] is Mus musculus. Description: In vivo antitrypanosomal activity (10 mg/kg for 4 days, i.p.) measured as cured mice infected with Trypanosoma brucei rhodesiense strain STIB900; 2 cured out of 4. Type of data set: functional.
Data set [4] concerns Mus musculus. Description: In vivo antitrypanosomal activity (10 mg/kg for 4 days, i.p.) measured as survival days of mice infected with Trypanosoma brucei rhodesiense strain STIB900. Type of data set: functional.
The subject of data set [5] is Mus musculus. The experiment in a line: In vivo antitrypanosomal activity (25 mg/kg for 4 days, p.o.) measured as cured mice infected with Trypanosoma brucei rhodesiense strain STIB900; 2 cured out of 4.
The test system of data set [6] is Mus musculus. Description: In vivo antitrypanosomal activity (100 mg/kg for 4 days, p.o.) measured as cured mice infected with Trypanosoma brucei rhodesiense strain STIB900; 0 cured out of 4. This is another data set of the same source.
Data set [7] deals with Mus musculus. The experiment in a line: In vivo antitrypanosomal activity (100 mg/kg for 4 days, p.o.) measured as survival days of mice infected with Trypanosoma brucei rhodesiense strain STIB900.
The subject of data set [8] is Mus musculus. Description: In vivo antitrypanosomal activity (20 mg/kg for 4 days, i.p.) measured as cured mice infected with Trypanosoma brucei rhodesiense strain STIB900; 3 cured out of 4. Type of data set: functional.
Data set [9] relates to Mus musculus. Description: In vivo antitrypanosomal activity (20 mg/kg for 4 days, i.p.) measured as survival days of mice infected with Trypanosoma brucei rhodesiense strain STIB900. It is filed as functional.
Data set [10] relates to Mus musculus. Description: In vivo antitrypanosomal activity (20 mg/kg for 4 days, i.p.) measured as cured mice infected with Trypanosoma brucei rhodesiense strain STIB900; 0 cured out of 4. Type of data set: functional.

Regarding `CCOC(=O)N/C(=N/C(C)C)Nc1ccc2c(c1)Cc1cc(N/C(=N\C(C)C)NC(=O)OCC)ccc1-2`, the results for the IC50 (in [1]; with Plasmodium falciparum) were 2.5 µM and 6.3 µM, respectively. Also, the CC50 with L6 came to 94.2 µM. In addition, in the data set on Mus musculus [2], the Cures worked out at 0.

For `N=C(N)Nc1ccc2c(c1)C(=O)c1cc(NC(=N)N)ccc1-2`, the IC50 in [1] was found to be 0.0073 µM; with Plasmodium falciparum it was 0.268 µM. Also, the “delta Tm” value in the data set on Nucleic Acid was found to be 6.1 °C. This molecule yielded a Cures with Mus musculus [3] of 2. In addition, the CC50 with L6 stood at 41.5 µM. Also, the Survival in the data set with Mus musculus [4] was more than 50.75 days.

For `CC/N=C(/NC(=O)OCC)Nc1ccc2c(c1)Cc1cc(/N=C(/NCC)NC(=O)OCC)ccc1-2`, the concentration for half-maximal inhibition (IC50) stood at 8 µM in data set [1] and 4.1 µM with Plasmodium falciparum. In the data set on L6, the CC50 was 174 µM.

For `CCOC(=O)N/C(=N/C)Nc1ccc2c(c1)Cc1cc(N/C(=N\C)NC(=O)OCC)ccc1-2`, the figures for the IC50 (in [1]; with Plasmodium falciparum) were 2.9 µM and 10.3 µM, respectively. Also, the CC50 in the data set with L6 is 95.6 µM. Also, the Cures in the data set with Mus musculus [5] is 2.

On to `CCOC(=O)NC(=N)Nc1ccc2c(c1)C(=O)c1cc(NC(=N)NC(=O)OCC)ccc1-2`, for which the values for the concentration for half-maximal inhibition (IC50) (in data set [1]; in the data set with Plasmodium falciparum) were 12.9 µM and 3.2 µM, respectively. In addition, the CC50 with L6 is more than 200 µM. In the data set with Mus musculus [6], this molecule yielded a Cures of 0.

As for `CC/N=C(/N)Nc1ccc2c(c1)Cc1cc(N/C(N)=N\CC)ccc1-2`, the 50% inhibitory concentration (IC50) is 0.0169 µM in [1] and 0.0133 µM in the data set with Plasmodium falciparum. In the data set with Nucleic Acid, the “delta Tm” value was found to be 10 °C. Further, the CC50 with L6 amounted to 39.2 µM.

For `N=C(Nc1ccc2c(c1)Cc1cc(NC(=N)c3ccccn3)ccc1-2)c1ccccn1`, the 50% inhibitory concentration (IC50) was determined as 0.894 µM in [1] and 1.2 µM with Plasmodium falciparum. The “delta Tm” value with Nucleic Acid turned out to be 15.2 °C. Moreover, in the data set with L6, the CC50 came to 98.7 µM.

In the case of `CC(C)CONC(=N)Nc1ccc2c(c1)Cc1cc(NC(=N)NOCC(C)C)ccc1-2`, the 50% inhibitory concentration (IC50) in data set [1] amounted to 21.2 µM; in the data set on Plasmodium falciparum, 0.351 µM. Also, the CC50 in the data set on L6 worked out at 68.4 µM. The same molecule yielded a Survival in the data set with Mus musculus [7] of 6.75 days. For the same molecule, in the data set on Mus musculus [2], the Cures was 0.

With `C/N=C(/N)Nc1ccc2c(c1)Cc1cc(N/C(N)=N\C)ccc1-2`, the IC50 in [1] turned out to be 0.0126 µM; in the data set with Plasmodium falciparum, 0.01 µM. In the data set with Nucleic Acid, the “delta Tm” value turned out to be 10.1 °C. Further, the Cures with Mus musculus [8] is recorded as 3. In addition, the CC50 in the data set on L6 came to 65.2 µM. The molecule also yielded a Survival with Mus musculus [9] of more than 52 days.

With `CONC(=N)Nc1ccc2c(c1)Cc1cc(NC(=N)NOC)ccc1-2`, the IC50 stood at 47.5 µM in data set [1] and 3 µM in the data set with Plasmodium falciparum. The CC50 in the data set with L6 came out at 137 µM. Further, the Survival with Mus musculus [7] turned out to be 8 days. Also, in the data set with Mus musculus [2], the Cures turned out to be 0.

`CCOC(=O)NC(=N)Nc1ccc2c(c1)Cc1cc(NC(=N)NC(=O)OCC)ccc1-2`: the IC50 worked out at 0.814 µM in [1] and 3.7 µM in the data set with Plasmodium falciparum. Further, the CC50 in the data set on L6 is more than 201 µM. In the data set with Mus musculus [7], this molecule showed a Survival of 18.75 days. Also, in the data set on Mus musculus [2], the Cures amounted to 0.

Take `N=C(N)Nc1ccc2c(c1)Cc1cc(NC(=N)N)ccc1-2`: the “delta Tm” value in the data set with Nucleic Acid was determined as 13.6 °C. Further, in the data set with Mus musculus [10], the Cures amounted to 0. In the data set on L6, the CC50 came out at 4.7 µM. For the same molecule, the Survival in the data set on Mus musculus [9] came out at 6 days.

Consider `CC(C)/N=C(/N)Nc1ccc2c(c1)Cc1cc(N/C(N)=N\C(C)C)ccc1-2`, for which the IC50 was determined as 0.0404 µM in data set [1] and 0.0357 µM in the data set on Plasmodium falciparum. Besides, the “delta Tm” value with Nucleic Acid turned out to be 9.3 °C. Moreover, the CC50 in the data set with L6 was 85.2 µM.

For `N=C(N)Nc1ccc2c(c1)C(=O)c1cc(NC(=N)N)ccc1C2=O`, the IC50 in [1] was 0.128 µM; with Plasmodium falciparum it was 30.2 µM. Moreover, in the data set with Nucleic Acid, the “delta Tm” value was 7.2 °C. Moreover, in the data set on L6, the CC50 is 35.3 µM.

In the case of `N=C(Nc1ccc2c(c1)Cc1cc(NC(=N)c3ccccc3)ccc1-2)c1ccccc1`, the IC50 in [1] turned out to be 0.292 µM; in the data set with Plasmodium falciparum, 0.481 µM. For the same molecule, in the data set with Nucleic Acid, the “delta Tm” value stood at 22 °C. Also, the CC50 with L6 was 1.9 µM.

Turning to `N=C(N)c1ccc(-c2ccc(-c3ccc(C(=N)N)cc3)o2)cc1` [FURAMIDINE], the “delta Tm” value in the data set on Nucleic Acid worked out at 25 °C. Further, in the data set on Mus musculus [10], the Cures turned out to be 0. In addition, the CC50 with L6 stood at 6.4 µM. The molecule also registered a Survival with Mus musculus [9] of 52.5 days.

Turning to `N=C(N)c1ccc(OCCCCCOc2ccc(C(=N)N)cc2)cc1` [PENTAMIDINE], the figures for the IC50 (in [1]; in the data set with Plasmodium falciparum) were 0.0023 µM and 0.0346 µM, respectively. The “delta Tm” value in the data set on Nucleic Acid came to 12.6 °C. The molecule also displayed a Cures with Mus musculus [10] of 0. Further, the CC50 with L6 was 1.5 µM. Besides, in the data set on Mus musculus [9], the Survival amounted to 40.8 days.
